# Experimental data reported in publication PMC6657673, “Synthesis of an α-phosphono-α,α-difluoroacetamide analogue of the diphosphoinositol pentakisphosphate 5-InsP7” (MedChemComm, 2019).
# Target: T1, diphosphoinositol pentakisphosphate kinase 2 (PPIP5K2) (Homo sapiens, UniProt O43314)
# T1 construct: kinase domain, residues 41–366 (crystal); residues 1–366 (kinase assay)
# T1 sequence (O43314 1-366): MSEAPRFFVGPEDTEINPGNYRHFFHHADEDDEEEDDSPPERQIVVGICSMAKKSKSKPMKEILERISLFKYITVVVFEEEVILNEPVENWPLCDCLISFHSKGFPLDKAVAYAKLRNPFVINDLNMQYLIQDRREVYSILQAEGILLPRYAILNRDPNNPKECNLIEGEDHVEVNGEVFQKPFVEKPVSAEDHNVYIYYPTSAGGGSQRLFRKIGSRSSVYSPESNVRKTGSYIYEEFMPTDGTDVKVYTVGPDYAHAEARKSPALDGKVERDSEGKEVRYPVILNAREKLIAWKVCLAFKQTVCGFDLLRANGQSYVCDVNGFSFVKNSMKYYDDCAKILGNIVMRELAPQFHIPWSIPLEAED
# Assay: X-ray co-crystal structure (soak); also reverse-kinase inhibition assay (ATP generation from ADP and […]-[PP]2-InsP4)
# Format: biochemical
structure (smiles),measurement,value
"O=C(N[C@@H]1[C@@H](OP(=O)(O)O)[C@H](OP(=O)(O)O)[C@H](OP(=O)(O)O)[C@H](OP(=O)(O)O)[C@H]1OP(=O)(O)O)C(F)(F)P(=O)(O)O [compound 1, 5-Deoxy-5-(phosphonodifluoroacetamido)-myo-inositol 1,2,3,4,6-pentakisphosphate]",IC50,375 nM
